Results reported in ChEMBL document CHEMBL1155757, “Cytotoxicity of Ganoderma lucidum triterpenes” (J Nat Prod, 2001).

Assays:
Assay type in all cases: functional, cell-based
HepG2 = experiment: Cytotoxicity against human HepG2 cells
[1] = Cytotoxicity against human HepG2(2.2.15) cells
KB = experiment: Cytotoxicity against human KB cells
[2] = Cytotoxicity against human CCM2 cells
P388 = experiment: Cytotoxicity against mouse P388 cells

## C[C@H](CCC(=O)O)[C@H]1CC(=O)[C@@]2(C)C3=C(C(=O)C[C@]12C)[C@@]1(C)CC[C@H](O)C(C)(C)[C@@H]1C[C@@H]3O [LUCIDENIC ACID N]
HepG2
  IC50: 0.000206 µM
[1]
  IC50: 0.00166 µM
KB
  IC50: 26.7 µM
[2]
  IC50: 35.5 µM
P388
  IC50: 0.012 µM

## C[C@H](CC(=O)C[C@@H](C)[C@H]1CC(=O)[C@@]2(C)C3=C(C(=O)C[C@]12C)[C@@]1(C)CCC(=O)C(C)(C)[C@@H]1CC3=O)C(=O)O [GANODERIC ACID E]
HepG2
  IC50: 0.000144 µM
[1]
  IC50: 0.000105 µM
[2]
  IC50: 31.2 µM
P388
  IC50: 5.01 µM

## C[C@H](CCC(=O)O)[C@H]1CC(=O)[C@@]2(C)C3=C(C(=O)C[C@]12C)[C@@]1(C)CCC(=O)C(C)(C)[C@@H]1C[C@@H]3O [LUCIDENIC ACID A]
HepG2
  IC50: 0.000164 µM
[1]
  IC50: 0.000205 µM
KB
  IC50: 17 µM
[2]
  IC50: 27.5 µM
P388
  IC50: 0.017 µM
